This note sets out measurements from patent US9326972B2, “Use of phenylmethimazoles, methimazole derivatives, and tautomeric cyclic thiones for the treatment of autoimmune/inflammatory diseases associated with toll-like receptor overexpression” (Ohio University, priority 2004, dated 2016).

One assay deals with IRF-3. Kind of assay: IRF-3 transactivation cis reporter in FRTL-5 thyrocytes. As to conditions: FRTL-5, 6 hours, 0.5 mM C-10. It counts as cell-based, rat. Here is the method: FIG. 5. Phenylmethimazole (CIO) and Methimazole (MMI) inhibit the ability of Poly (I:C), lipopolysaccharide (LPS) and IL-1β to increase IFN-β gene expression (Top Left) and IRF-3 transactivation (Top Right) in FRTL-5 thyrocytes. (Top Left) Cells were co-transfected with IFNβ-Luc and control vector (pRLTk-Int), then treated with or without (−) Poly (I:C) (100 μg/ml), LPS (100 ng/ml), or IL-1β (10 ng/ml) in the presence of the vehicle (DMSO) alone (−), C10, or MMI for 6 hours. Data was obtained with the Dual Luciferase Assay system. (Top Right) Cells were co-transfected with Gal4 DBD/IRF-3 and Gal4-Luc then treated with nothing (−), poly (I:C), LPS, or IL-1β as in (Top Left) in the presence of DMSO or C10 for 6 hours. Data was obtained by Luciferase assay. Also shown is a graphic depiction (Bottom) of how the cis reporting system is working. Data are representative of multiple experiments.
We measured the ability of C10 to inhibit IRF-3 transactivation activity in FRTL-5 thyrocytes, using the IRF-3 cis reporter system (FIG. 5, bottom).
Plasmids for Reporter Gene Assays. Human IRF-3 was amplified from human cDNA and cloned into pCR 2.1 by the TOPO/TA (Invitrogen, Carlsbad, Calif.) cloning method, and then sequenced. IRF-3 was then excised by EcoRI digestion and subcloned into pCMV-BD (Stratagene, La Jolla, Calif.) for use in transactivation assays. […]

The subject of another assay is horses. Nature of the assay: Peritonitis and endotoxic shock in horses induced by intraperitoneal caecal fluid. It counts as in vivo, horse.
The next assay deals with Stat1. Nature of the assay: Activated Stat1 in kidney and lung lysates of LPS-treated mice (immunoblot). The format is in vivo, mouse. Particulars: LPS-treated mice of Table 5. From the text:
In order to more definitively determine if LPS-induced IFN-β signaling and LPS-induced increases in IRF-1 and IP-10 in vivo might be attenuated by an effect of C10 treatment on Stat1 activation, protein phosphorylation levels of Stat1 in whole tissue lysates were examined in mice from Table 5. […] In contrast neither LPS nor C10 had any effect on total Stat1 in these tissues (FIG. 8, bottom blots). […] Based on literature studies described in immune cells and results we have described in nonimmune cells (FIGS. 4-6; Tables 2, 3), it is reasonable to state that C10 blocks Stat1/IRF-1 signals in vivo as well as in vitro, this is important in the therapy of toxic shock where these genes are not only involved but critical to disease expression. C10 therapy is thus important in reducing pathologic changes in multiple tissues whose organ failure is known to contribute to the signs and symptoms of toxic shock.
Immunoblot analysis of RAW 264.7 and mouse tissues: Nuclear and cytoplasmic extracts for RAW cells were prepared using NE-PER® extraction reagents (Pierce, Rockford, Ill.) in the presence of a protease inhibitor mixture (PMSF, leupeptin, and pepstatin A). […] Binding of HRP-conjugated goat anti-rabbit Ab (sc-2054; Santa Cruz Biotechnology, Inc., Santa Cruz, Calif.) was detected using the ECLplus Western Blotting Detection System (Amersham Biosciences, Piscataway, N.J.).
Background: Immunoblotting shows a protein as a band on a membrane.

`Cn1c(-c2ccccc2)cnc1S` [Compound C10, 5-Phenylmethimazole]: in the assay on IRF-3, the “IRF-3 transactivation by poly (I:C), LPS, or IL-1β” value was “inhibited”. Also, the effectiveness of treatment in the assay on horses (10 animals so treated) amounted to 100%. Further, in the assay on horses (C10 2 mg/kg intravenous bolus at 12 hours), the “time to disappearance of signs of collapse or depression after the C-10 bolus” value was at most 15 min. Besides, the survival rate in the assay on horses (endotoxemia and shock due to septic peritonitis, intraperitoneal inoculation of intestinal flora) worked out at 100%. The “activated (phosphorylated) Stat1 protein levels in kidney and lung” value in the assay on Stat1 is recorded as “reduced to basal”.
